Tested on: patients with ALK-positive NSCLC
Assay: Phase 1 safety assessment (TRAEs by CTCAE 4.03, DLT, MTD, RP2D)
Assay type: in vivo, human
Experimental: In the dose-escalation phase, the dose was escalated sequentially from a low to a high level with a 3 + 3 dose-escalation scheme based on the modified Fibonacci method. The starting dose for conteltinib was 50 mg orally quaque die (QD). Dose escalation proceeded to the next six cohorts of 100 mg, 200 mg, 300 mg, 450 mg, 600 mg, and 800 mg QD. For each dose, there was a PK lead-in phase where a single dose was given 7 days before cycle 1 day 1. Then, each dose was taken continuously in a 28-day cycle. The first cycle was for dose-limiting toxicity (DLT) investigation. When one of three patients experienced a DLT in a dose cohort, three additional patients were enrolled in the same dose cohort to assess the dose level in a total of six patients. All patients received conteltinib until disease progression, unacceptable toxicity, or withdrawal of consent. Patients received follow-up safety assessments for 30 days (±7 days) after the last conteltinib dose.
In the dose-expansion phase, each dose was taken continuously in a 28-day cycle. At the end of each cycle, a safety evaluation was conducted. If patients met the criteria to enter the next cycle, treatment with conteltinib was continued for subsequent cycles. All patients received conteltinib until disease progression, unacceptable toxicity, or withdrawal of consent. Patients received follow-up safety assessments for 30 days (±7 days) after the last dose of conteltinib.
The safety of conteltinib was assessed in safety set (SS) which was based on the National Cancer Institute Common Terminology Criteria for Adverse Events (CTCAE) version 4.03, laboratory tests, vital signs, ECG, and clinical observations. […] Adverse events (AEs) were judged to be treatment-related or not by investigators.
DLTs were AEs occurring in the first cycle of treatment (28 days) that were attributed to conteltinib, and the criteria were grade 4 neutropenia lasting ≥ 7 days, febrile neutropenia, grade 3 thrombocytopenia, grade 3 non-hematologic toxicity, and any conteltinib-related toxicity resulting in treatment delay > 2 weeks or discontinuation of conteltinib treatment at the assigned dose level. Besides, grade 3 nausea, vomiting, or diarrhea for ≥ 3 days or grade 4 nausea, vomiting, or diarrhea of any duration was considered as a DLT. The MTD was defined as the dose of conteltinib that would be closest to but not higher than a 33% probability of a DLT.

SMILES: COc1cc(N2CCC(N3CCN(C)CC3)CC2)ccc1Nc1nc2c(c(Nc3ccccc3S(=O)(=O)NC(C)C)n1)CCN2 [Conteltinib]
- TRAE Hypertriglyceridemia (800 mg QD (n=4), Grade ≥ 3): 0 (0.0) n (%)
- TRAE Hyperuricemia (800 mg QD (n=4), Grade ≥ 3): 0 (0.0) n (%)
- TRAE Hypoalbuminemia (800 mg QD (n=4), Grade ≥ 3): 0 (0.0) n (%)
- TRAE Nausea (800 mg QD (n=4), Grade ≥ 3): 0 (0.0) n (%)
- TRAE Proteinuria (800 mg QD (n=4), Grade ≥ 3): 0 (0.0) n (%)
- TRAE Serum creatinine elevated (800 mg QD (n=4), Grade ≥ 3): 0 (0.0) n (%)
- TRAE Vomiting (800 mg QD (n=4), Grade ≥ 3): 0 (0.0) n (%)
- TRAE Weight loss (800 mg QD (n=4), Grade ≥ 3): 0 (0.0) n (%)
- TRAE γ-GGT elevated (800 mg QD (n=4), Grade ≥ 3): 0 (0.0) n (%)
- DLTs (800 mg QD cohort): No DLTs were observed
- patients with permanent discontinuation due to TRAE (64 patients, impaired liver function): 3.1%
- patients with TRAEs leading to conteltinib interruption (64 patients, serum creatinine elevated and impaired liver function): 6.3%
- patients with TRAEs leading to dose reduction (64 patients, serum creatinine elevated, neutropenia, impaired liver function): 4.7%
- patients with grade ≥ 3 TRAEs (SS, 64 patients): 14.1%
- TRAE ALT elevated (SS, 64 patients, all grades): 34.4%
- TRAE AST elevated (SS, 64 patients, all grades): 39.1%
- TRAE Abdominal pain (SS, 64 patients, all grades): 26.6%
- TRAE Abdominal pain upper (SS, 64 patients, all grades): 17.2%
- TRAE Appetite decreased (SS, 64 patients, all grades): 18.75%
- TRAE Conjugated bilirubin elevated (SS, 64 patients, all grades): 10.9%
- TRAE Diarrhea (SS, 64 patients, all grades): 71.9%
- TRAE Hypercholesterolemia (SS, 64 patients, all grades): 12.5%
- TRAE Hyperglycemia (SS, 64 patients, all grades): 15.6%
- TRAE Hypertriglyceridemia (SS, 64 patients, all grades): 23.4%
- TRAE Hyperuricemia (SS, 64 patients, all grades): 31.25%
- TRAE Hypoalbuminemia (SS, 64 patients, all grades): 17.2%
- TRAE Nausea (SS, 64 patients, all grades): 37.5%
- TRAE Proteinuria (SS, 64 patients, all grades): 21.9%
- TRAE Serum creatinine elevated (SS, 64 patients, all grades): 45.3%
- TRAE Vomiting (SS, 64 patients, all grades): 35.9%
- TRAE Weight loss (SS, 64 patients, all grades): 28.1%
- TRAE γ-GGT elevated (SS, 64 patients, all grades): 32.8%
- patients with TRAEs (SS, 64 patients, all grades): 90.6%
- TRAE Conjugated bilirubin elevated (SS, 64 patients, grade ≥ 3): 1.6%
- TRAE Diarrhea (SS, 64 patients, grade ≥ 3): 3.1%
- TRAE Serum creatinine elevated (SS, 64 patients, grade ≥ 3): 1.6%
- TRAE γ-GGT elevated (SS, 64 patients, grade ≥ 3): 7.8%
- Patients with any TRAE (Total (n=64), All grade): 58 (90.6) n (%)
- TRAE ALT elevated (Total (n=64), All grade): 22 (34.4) n (%)
- TRAE AST elevated (Total (n=64), All grade): 25 (39.1) n (%)
- TRAE Abdominal pain (Total (n=64), All grade): 17 (26.6) n (%)
- TRAE Abdominal pain upper (Total (n=64), All grade): 11 (17.2) n (%)
- TRAE Appetite decreased (Total (n=64), All grade): 12 (18.8) n (%)
- TRAE Conjugated bilirubin elevated (Total (n=64), All grade): 7 (10.9) n (%)
- TRAE Diarrhea (Total (n=64), All grade): 46 (71.9) n (%)
- TRAE Hypercholesterolemia (Total (n=64), All grade): 8 (12.5) n (%)
- TRAE Hyperglycemia (Total (n=64), All grade): 10 (15.6) n (%)
- TRAE Hypertriglyceridemia (Total (n=64), All grade): 15 (23.4) n (%)
- TRAE Hyperuricemia (Total (n=64), All grade): 20 (31.3) n (%)
- TRAE Hypoalbuminemia (Total (n=64), All grade): 11 (17.2) n (%)
- TRAE Nausea (Total (n=64), All grade): 24 (37.5) n (%)
- TRAE Proteinuria (Total (n=64), All grade): 14 (21.9) n (%)
- TRAE Serum creatinine elevated (Total (n=64), All grade): 29 (45.3) n (%)
- TRAE Vomiting (Total (n=64), All grade): 23 (35.9) n (%)
- TRAE Weight loss (Total (n=64), All grade): 18 (28.1) n (%)
- TRAE γ-GGT elevated (Total (n=64), All grade): 21 (32.8) n (%)
- Patients with any TRAE (Total (n=64), Grade 1–2): 58 (90.6) n (%)
- TRAE ALT elevated (Total (n=64), Grade 1–2): 22 (34.4) n (%)
- TRAE AST elevated (Total (n=64), Grade 1–2): 25 (39.1) n (%)
- TRAE Abdominal pain (Total (n=64), Grade 1–2): 17 (26.6) n (%)
- TRAE Abdominal pain upper (Total (n=64), Grade 1–2): 11 (17.2) n (%)
- TRAE Appetite decreased (Total (n=64), Grade 1–2): 12 (18.8) n (%)
- TRAE Conjugated bilirubin elevated (Total (n=64), Grade 1–2): 6 (9.4) n (%)
- TRAE Diarrhea (Total (n=64), Grade 1–2): 44 (68.8) n (%)
- TRAE Hypercholesterolemia (Total (n=64), Grade 1–2): 8 (12.5) n (%)
- TRAE Hyperglycemia (Total (n=64), Grade 1–2): 10 (15.6) n (%)
- TRAE Hypertriglyceridemia (Total (n=64), Grade 1–2): 15 (23.4) n (%)
- TRAE Hyperuricemia (Total (n=64), Grade 1–2): 20 (31.3) n (%)
- TRAE Hypoalbuminemia (Total (n=64), Grade 1–2): 11 (17.2) n (%)
- TRAE Nausea (Total (n=64), Grade 1–2): 24 (37.5) n (%)
- TRAE Proteinuria (Total (n=64), Grade 1–2): 14 (21.9) n (%)
- TRAE Serum creatinine elevated (Total (n=64), Grade 1–2): 28 (43.8) n (%)
- TRAE Vomiting (Total (n=64), Grade 1–2): 23 (35.9) n (%)
- TRAE Weight loss (Total (n=64), Grade 1–2): 18 (28.1) n (%)
- TRAE γ-GGT elevated (Total (n=64), Grade 1–2): 16 (25.0) n (%)
- Patients with any TRAE (Total (n=64), Grade ≥ 3): 9 (14.1) n (%)
- TRAE ALT elevated (Total (n=64), Grade ≥ 3): 0 (0.0) n (%)
- TRAE AST elevated (Total (n=64), Grade ≥ 3): 0 (0.0) n (%)
- TRAE Abdominal pain (Total (n=64), Grade ≥ 3): 0 (0.0) n (%)
- TRAE Abdominal pain upper (Total (n=64), Grade ≥ 3): 0 (0.0) n (%)
- TRAE Appetite decreased (Total (n=64), Grade ≥ 3): 0 (0.0) n (%)
- TRAE Conjugated bilirubin elevated (Total (n=64), Grade ≥ 3): 1 (1.6) n (%)
- TRAE Diarrhea (Total (n=64), Grade ≥ 3): 2 (3.1) n (%)
- TRAE Hypercholesterolemia (Total (n=64), Grade ≥ 3): 0 (0.0) n (%)
- TRAE Hyperglycemia (Total (n=64), Grade ≥ 3): 0 (0.0) n (%)
- TRAE Hypertriglyceridemia (Total (n=64), Grade ≥ 3): 0 (0.0) n (%)
- TRAE Hyperuricemia (Total (n=64), Grade ≥ 3): 0 (0.0) n (%)
- TRAE Hypoalbuminemia (Total (n=64), Grade ≥ 3): 0 (0.0) n (%)
- TRAE Nausea (Total (n=64), Grade ≥ 3): 0 (0.0) n (%)
- TRAE Proteinuria (Total (n=64), Grade ≥ 3): 0 (0.0) n (%)
- TRAE Serum creatinine elevated (Total (n=64), Grade ≥ 3): 1 (1.6) n (%)
- TRAE Vomiting (Total (n=64), Grade ≥ 3): 0 (0.0) n (%)
- TRAE Weight loss (Total (n=64), Grade ≥ 3): 0 (0.0) n (%)
- TRAE γ-GGT elevated (Total (n=64), Grade ≥ 3): 5 (7.8) n (%)
- DLTs (dose-expansion phase): No DLTs were observed
- MTD (doses 50 to 800 mg QD): not reached
- deaths during treatment (in vivo): No patients died
- rash (this study): 6.25%
- visual effects (this study): 1.6%
